Measurements from publication PMC8286840, “Identifying SARS-CoV-2 antiviral compounds by screening for small molecule inhibitors of Nsp3 papain-like protease” (Biochemical Journal, 2021).
Counter-ions that a name gives are not always drawn. Like-named read-outs stand apart in the source and are kept apart here.

Legend:
[1] = biological target: T1, SARS-CoV-2 PLpro (nsp3 1564–1878) (Severe acute respiratory syndrome coronavirus 2, UniProt P0DTD1); test: biochemical; set-up: FRET-quenched peptide (Pro3) cleavage by PLpro, 10 min pre-incubation, slope over 20 min, normalised to no-compound control; settings: high concentration screen, read-out: % of control remaining
[2] = biological target: T1, SARS-CoV-2 PLpro (nsp3 1564–1878); test: biochemical; set-up: FRET-quenched peptide (Pro3) cleavage by PLpro, 10 min pre-incubation, slope over 20 min, normalised to no-compound control; settings: low concentration screen, read-out: % of control remaining

O[C@H]1CCN2Cc3ccccc3N=C12 [Vasicine]
remaining activity at 3.75 µM ([1]; Well no.=3406): 94.4%
remaining activity at 1.25 µM ([2]; Well no.=3406): 97.8%

Clc1ccc(Nc2nnc(Cc3ccncc3)c3ccccc23)cc1 [Vatalanib]
remaining activity at 3.75 µM ([1]; Well no.=1619): 95.2%
remaining activity at 1.25 µM ([2]; Well no.=1619): 97%

CC(=O)O[C@H]1C[C@@H]2CC[C@@H]3[C@H](CC[C@@]4(C)[C@H]3C[C@H]([N+]3(C)CCCCC3)[C@@H]4OC(C)=O)[C@@]2(C)C[C@@H]1N1CCCCC1 [Vecuronium]
remaining activity at 3.75 µM ([1]; Well no.=2014): 103%
remaining activity at 1.25 µM ([2]; Well no.=2014): 103%

CC1(C)CCC(CN2CCN(c3ccc(C(=O)NS(=O)(=O)c4ccc(NCC5CCOCC5)c([N+](=O)[O-])c4)c(Oc4cnc5[nH]ccc5c4)c3)CC2)=C(c2ccc(Cl)cc2)C1 [Venetoclax]
remaining activity at 3.75 µM ([1]; Well no.=6396): 104%
remaining activity at 3.75 µM ([1]; Well no.=7400): 94.7%
remaining activity at 1.25 µM ([2]; Well no.=6396): 107%
remaining activity at 1.25 µM ([2]; Well no.=7400): 91.2%

COc1ccc(C(CN(C)C)C2(O)CCCCC2)cc1 (stereo not drawn) [Venlafaxine]
remaining activity at 3.75 µM ([1]; Well no.=2044): 99.4%
remaining activity at 1.25 µM ([2]; Well no.=2044): 100%

C=CCN1CCCC1CNC(=O)c1cc(S(N)(=O)=O)cc(OC)c1OC (stereo not drawn) [Veralipride]
remaining activity at 3.75 µM ([1]; Well no.=7715): 97.9%
remaining activity at 1.25 µM ([2]; Well no.=7715): 93.1%

COc1ccc(CCN(C)CCCC(C#N)(c2ccc(OC)c(OC)c2)C(C)C)cc1OC (stereo not drawn) [Verapamil]
remaining activity at 3.75 µM ([1]; Well no.=1721): 100%
remaining activity at 1.25 µM ([2]; Well no.=1721): 100%

Cc1c([C@H](C)[C@@H]2NC[C@@H](C)C[C@H]2O)ccc2c1C[C@H]1[C@H]2CC=C2C[C@@H](O)CC[C@@]21C [Veratramine]
remaining activity at 3.75 µM ([1]; Well no.=3280): 102%
remaining activity at 1.25 µM ([2]; Well no.=3280): 102%

COc1ccc(C(=O)O[C@H]2CC[C@@]3(C)[C@@H]4CC[C@H]5[C@]6(O)C[C@H](O)[C@@]7(O)[C@@H](CN8C[C@@H](C)CC[C@H]8[C@@]7(C)O)[C@]6(O)C[C@@]53O[C@]24O)cc1OC [Veratridine]
remaining activity at 3.75 µM ([1]; Well no.=3222): 101%
remaining activity at 1.25 µM ([2]; Well no.=3222): 99.9%

CC(C)(C)c1ccc(S(=O)(=O)Nc2ccc(Cl)cc2C(=O)c2cc[n+]([O-])cc2)cc1 [Vercirnon]
remaining activity at 3.75 µM ([1]; Well no.=8645): 103%
remaining activity at 1.25 µM ([2]; Well no.=8645): 103%

COc1ccc2c3c4n(c2c1)[C@H](C=C(C)C)OOC(C)(C)C[C@@H]4N1C(=O)[C@@H]2CCCN2C(=O)[C@]1(O)[C@H]3O [Verruculogen]
remaining activity at 3.75 µM ([1]; Well no.=3556): 102%
remaining activity at 1.25 µM ([2]; Well no.=3556): 98.3%

CCCCOc1nc(N)c2c(n1)N(Cc1cccc(CN3CCCC3)c1)CC(=O)N2 [Vesatolimod]
remaining activity at 3.75 µM ([1]; Well no.=8127): 102%
remaining activity at 1.25 µM ([2]; Well no.=8127): 105%

COC[C@@H](c1ccc(C(F)(F)F)cc1)N1CCN(C2(C)CCN(C(=O)c3c(C)ncnc3C)CC2)C[C@@H]1C [Vicriviroc (maleate)]
remaining activity at 3.75 µM ([1]; Well no.=8655): 103%
remaining activity at 1.25 µM ([2]; Well no.=8655): 106%

Nc1ncnc2c1ncn2[C@@H]1O[C@H](CO)[C@@H](O)[C@@H]1O [Vidarabine]
remaining activity at 3.75 µM ([1]; Well no.=2046): 110%
remaining activity at 3.75 µM ([1]; Well no.=8006): 95.5%
remaining activity at 1.25 µM ([2]; Well no.=2046): 107%
remaining activity at 1.25 µM ([2]; Well no.=8006): 93.6%

COc1cccc(-c2ccc(NC(=O)C3=C(C(=O)O)CCC3)c(F)c2)c1 [Vidofludimus]
remaining activity at 3.75 µM ([1]; Well no.=8524): 96.6%
remaining activity at 1.25 µM ([2]; Well no.=8524): 99.5%

N#Cc1ccc2[nH]cc(CCCCN3CCN(c4ccc5oc(C(N)=O)cc5c4)CC3)c2c1 [Vilazodone (Hydrochloride)]
remaining activity at 3.75 µM ([1]; Well no.=6286): 106%
remaining activity at 1.25 µM ([2]; Well no.=6286): 105%

N#Cc1ccc2[nH]cc(CCCCN3CCN(c4ccc5oc(C(N)=O)cc5c4)CC3)c2c1 [Vilazodone]
remaining activity at 3.75 µM ([1]; Well no.=6477): 89.2%
remaining activity at 1.25 µM ([2]; Well no.=6477): 90.6%

N#C[C@@H]1CCCN1C(=O)CNC12CC3CC(CC(O)(C3)C1)C2 [Vildagliptin (LAF-237)]
remaining activity at 3.75 µM ([1]; Well no.=4885): 99.9%
remaining activity at 1.25 µM ([2]; Well no.=4885): 99.1%

CC[C@]1(O)C[C@@H]2CN(CCc3c([nH]c4ccccc34)[C@@](C(=O)OC)(c3cc4c(cc3OC)N(C)[C@H]3[C@@](O)(C(=O)OC)[C@H](OC(C)=O)[C@]5(CC)C=CCN6CC[C@]43[C@@H]65)C2)C1 [Vinblastine sulfate salt]
remaining activity at 3.75 µM ([1]; Well no.=1288): 108%
remaining activity at 1.25 µM ([2]; Well no.=1288): 111%

CC[C@]1(O)C[C@@H]2CN(CCc3c([nH]c4ccccc34)[C@@](C(=O)OC)(c3cc4c(cc3OC)N(C)[C@H]3[C@@](O)(C(=O)OC)[C@H](OC(C)=O)[C@]5(CC)C=CCN6CC[C@]43[C@@H]65)C2)C1 [Vinblastine sulfate]
remaining activity at 3.75 µM ([1]; Well no.=3224): 97.9%
remaining activity at 1.25 µM ([2]; Well no.=3224): 100%

CC[C@]1(O)C[C@@H]2CN(CCc3c([nH]c4ccccc34)[C@@](C(=O)OC)(c3cc4c(cc3OC)N(C)[C@H]3[C@@](O)(C(=O)OC)[C@H](OC(C)=O)[C@]5(CC)C=CCN6CC[C@]43[C@@H]65)C2)C1 [Vinblastine]
remaining activity at 3.75 µM ([1]; Well no.=2165): 103%
remaining activity at 1.25 µM ([2]; Well no.=2165): 101%

CC[C@]12CCCN3CCc4c(n(c5ccccc45)[C@@](O)(C(=O)OC)C1)[C@@H]32 [Vincamine]
remaining activity at 3.75 µM ([1]; Well no.=3475): 102%
remaining activity at 1.25 µM ([2]; Well no.=3475): 106%

CC[C@]1(O)C[C@H]2CN(CCc3c([nH]c4ccccc34)[C@@](C(=O)OC)(c3cc4c(cc3OC)N(C=O)[C@H]3[C@@](O)(C(=O)OC)[C@H](OC(C)=O)[C@]5(CC)C=CCN6CC[C@]43[C@@H]65)C2)C1 [Vincristine sulfate]
remaining activity at 3.75 µM ([1]; Well no.=1194): 97.6%
remaining activity at 3.75 µM ([1]; Well no.=3226): 105%
remaining activity at 1.25 µM ([2]; Well no.=1194): 97.3%
remaining activity at 1.25 µM ([2]; Well no.=2035): 104%
remaining activity at 1.25 µM ([2]; Well no.=3226): 102%

CC[C@]1(O)C[C@@H]2CN(CCc3c([nH]c4ccccc34)[C@@](C(=O)OC)(c3cc4c(cc3OC)N(C)[C@H]3[C@@](O)(C(N)=O)[C@H](O)[C@]5(CC)C=CCN6CC[C@]43[C@@H]65)C2)C1 [Vindesine sulfate]
remaining activity at 3.75 µM ([1]; Well no.=2031): 103%
remaining activity at 1.25 µM ([2]; Well no.=2031): 102%

CCC12C=CCN3CC[C@@]4(c5ccc(OC)cc5N(C)[C@H]4[C@@](O)(C(=O)OC)[C@@H]1OC(C)=O)[C@@H]32 (stereo partly drawn) [Vindoline]
remaining activity at 3.75 µM ([1]; Well no.=3761): 96.6%
remaining activity at 1.25 µM ([2]; Well no.=3761): 96.2%

CC[C@]12C=CCN3CC[C@@]4(c5cc([C@@]6(C(=O)OC)C[C@@H]7C[C@@H](C(C)(F)F)CN(Cc8c6[nH]c6ccccc86)C7)c(OC)cc5N(C)[C@H]4[C@@](O)(C(=O)OC)[C@@H]1OC(C)=O)[C@@H]32 [Vinflunine Tartrate]
remaining activity at 3.75 µM ([1]; Well no.=4892): 94.7%
remaining activity at 1.25 µM ([2]; Well no.=4892): 95.2%

CCC1=C[C@@H]2CN(C1)Cc1c([nH]c3ccccc13)[C@@](C(=O)OC)(c1cc3c(cc1OC)N(C)[C@H]1[C@@](O)(C(=O)OC)[C@H](OC(C)=O)[C@]4(CC)C=CCN5CC[C@]31[C@@H]54)C2 [Vinorelbine]
remaining activity at 3.75 µM ([1]; Well no.=2029): 108%
remaining activity at 3.75 µM ([1]; Well no.=3763): 100%
remaining activity at 1.25 µM ([2]; Well no.=2029): 104%
remaining activity at 1.25 µM ([2]; Well no.=3763): 96.8%
